Experiments:
[1] = Caco 2 monolayer permeability of 5-azacytidine with and without excipients; type: in vitro ADME; settings: human
Experimental: The Caco-2 cells are an intestinal epithelial cell line (human colon adenocarcinoma established from the primary colon tumor (adenocarcinoma)) Monolayers of Caco-2 cells are used to classify the intestinal absorption potential of a drug candidate molecule. The assay was carried out in accordance with P. Artursson and J. Karlsson, “Correlation between Oral Drug Absorption in Humans and Apparent Drug Permeability Coefficients in Human Intestinal Epithelial (Caco-2) Cells”, Biochem. Biophys. Res. Commun. 175, 880 (1991).
Briefly, Caco-2 cells were grown to confluence on collagen-coated, microporous polycarbonate in 12-well plates. For the assay buffer, Dulbecco's Phosphate Buffered Saline at pH 7.4 was used. […] The test compound was then dosed on either the apical or basolateral side of the Caco-2 monolayer, and flux across the monolayer was determined both one and two hours after dosing. Results were compared to control high permeability compounds metoprolol and antipyrine and low permeability compounds atenolol and ranitidine, and were expressed as Papp (apparent permeability) compared to reference compound standards. Integrity of the monolayers was determine both before and after testing by measuring the […] electrical resistance (TEER) value. Apparent permeability is calculated as (dCr/dt)×Vr/(A×C0) where dCr/dt is the slope of the cumulative concentration in the receiver compartment versus time in micromolar per second, Vr is the volume of the receiver compartment in cubic centimeters, A is the area of the cell monolayer, and C0 is the measured initial donor concentration in micromolar.

human colonic tissue = test: Permeation enhancement in human colonic strips; type: in vitro ADME; settings: without enzymatic inhibition (FIGS. 3, 4)
Description: This model allows evaluation of the absorption potential of drugs and differences in drug absorption across the human jejunum, ileum, and colon and is based on Ungell et al. “Membrane Transport of Drugs in Different Regions of the Intestinal Tract of the Rat”, J. Pharm. Sci. 87:360-366, (1998) and Nejdfors et al. “Mucosal in vitro Permeability in the Intestinal Tract of the Pig, the Rat, and Man: Species and Region Related Differences”, Scand. J. Gastroenterol. 35:501-507, (2000). Permeation experiments were performed for 5-azacytidine in the jejunal, ileal, and colonic tissues originating from the same human donor. Post-mortem human whole intestine was obtained from the International Institute for the Advancement of Medicine (IIAM). Tissues were used within 24 hours of the organ's removal. Tissues were maintained in cold transport media before being stripped. The segments were cut along the mesenteric border, the underlying musculature was stripped off, and the epithelium was rinsed with ice cold normal saline. The stripped tissues were mounted within the vertical USSING chambers (Harvard Apparatus, Holliston, Mass.). In these studies, 5-azacytidine permeability was measured in both absolute rate and relative to atenolol (internal control). In all cases the net apparent permeability was assessed in the mucosal to serosal direction only.

[2] = tested on: fetal hemoglobin production; settings: baboons; IV, SC or PO route; PO needed co-administration of THU; 0.25 to 8 mg/kg/d with 20 mg/kg/d THU; cited from earlier work

Nc1ncn([C@@H]2O[C@H](CO)[C@@H](O)[C@H]2O)c(=O)n1 [5-azacytidine, 4-amino-1-β-D-ribofuranosyl-1,3,5-triazin-2(1H)-one]
Papp at 1000 micromolar ([1]; Caco-2, pH 7.4, with Carboxymethyl Cellulose 0.1%): 0.26 ± 0.09 ×10⁻⁶ cm/s | Papp at 1000 micromolar ([1]; Caco-2, pH 7.4, with Chitosan 0.1%): 0.15 ± 0.01 ×10⁻⁶ cm/s | Papp at 1000 micromolar ([1]; Caco-2, pH 7.4, with Labrafil 0.001%): 0.27 ± 0.02 ×10⁻⁶ cm/s | Papp at 1000 micromolar ([1]; Caco-2, pH 7.4, with Labrafil 0.01%): 0.23 ± 0.04 ×10⁻⁶ cm/s | Papp at 1000 micromolar ([1]; Caco-2, pH 7.4, with Labrafil 0.05%): 0.38 ± 0.13 ×10⁻⁶ cm/s | Papp at 1000 micromolar ([1]; Caco-2, pH 7.4, with Labrafil 0.1%): 0.34 ± 0.002 ×10⁻⁶ cm/s | Papp at 1000 micromolar ([1]; Caco-2, pH 7.4, with Poloxamer F127 0.1%): 0.13 ± 0.02 ×10⁻⁶ cm/s | Papp at 1000 micromolar ([1]; Caco-2, pH 7.4, with Sodium Laurate 0.001%): 0.19 ± 0.04 ×10⁻⁶ cm/s | Papp at 1000 micromolar ([1]; Caco-2, pH 7.4, with Sodium Laurate 0.01%): 0.19 ± 0.02 ×10⁻⁶ cm/s | Papp at 1000 micromolar ([1]; Caco-2, pH 7.4, with Sodium Laurate 0.05%): 0.17 ± 0.03 ×10⁻⁶ cm/s | Papp at 1000 micromolar ([1]; Caco-2, pH 7.4, with Sodium Laurate 0.1%, high permeability due to toxic effects of sodium laurate on Caco 2 cells): 15.8 ± 1.77 ×10⁻⁶ cm/s | Papp at 1000 micromolar ([1]; Caco-2, pH 7.4, with Solutol 0.1%): 0.26 ± 0.04 ×10⁻⁶ cm/s | Papp at 1000 micromolar ([1]; Caco-2, pH 7.4, with TPGS 0.001%): 0.33 ± 0.08 ×10⁻⁶ cm/s | Papp at 1000 micromolar ([1]; Caco-2, pH 7.4, with TPGS 0.01%): 0.3 ± 0.05 ×10⁻⁶ cm/s | Papp at 1000 micromolar ([1]; Caco-2, pH 7.4, with TPGS 0.05%): 0.45 ± 0.18 ×10⁻⁶ cm/s | Papp at 1000 micromolar ([1]; Caco-2, pH 7.4, with TPGS 0.1%): 0.38 ± 0.09 ×10⁻⁶ cm/s | Papp A→B at 1000 micromolar ([1]; Caco-2, pH 7.4, read-out: Papp (apical to basolateral permeability)): 0.15 ± 0.02 ×10⁻⁶ cm/s | Permeability with permeation enhancer (human colonic tissue; various concentrations of Labrafil): did not appear to affect | Permeability with permeation enhancer (human colonic tissue; various concentrations of TPGS): trend toward greater permeability with increasing levels of TPGS | Fetal hemoglobin production [2]: induce fetal hemoglobin production
